# Experiments:
# [1] = tested on: baboons; conditions: baboon, other direct antithrombins evaluated earlier in this model, cited from earlier work
# [2] = tested on: baboons; conditions: baboon; dose which gives a 50% inhibition of platelet deposition; other direct antithrombins evaluated earlier in this model; cited from earlier work
# [3] = biological target: T1, a-thrombin (Homo sapiens, UniProt P00734); assay: Amidolytic thrombin assay (inhibitor constant Ki, Ki*); format: biochemical; set-up: Purified human a-thrombin; purchased Enzyme Research Laboratories, Inc; conditions: human a-thrombin 0.25 nM, Pefachrome t-PA substrate, HBSA pH 7.5
# Procedure: The ability of the compounds of the present invention to act as inhibitors of thrombin catalytic activity in comparison to Hirulog-1 (compound 25) was assessed by determining their inhibition constant, Ki.
# Enzyme activity was determined using the chromogenic substrate Pefachrome t-PA (CH3 SO2 -D-hexahydrotyrosine-glycyl-L-arginine-p-nitroaniline, obtained from Pentapharm Ltd.). The substrate was reconstituted in deionized water prior to use.
# Ki values were determined for test compounds using the following methodologies:
# The assay was conducted by combining in appropriate wells of a Corning microtiter plate, […], […] of the test compound at a specified concentration diluted in HBSA (or HBSA alone for Vo(uninhibited velocity) measurement), and 50 mL of the chromogenic substrate diluted in HBSA. […] Velocities of Pefachrome-tPA substrate hydrolysis which occurred over a 40 minute time period was measured by the change in absorbance at 405 nm using a Thermo Max® Kinetic Microplate Reader. […]
# The initial velocity of Pefachrome t-PA hydrolysis was measured by the change in absorbance at 405 nm using a Thermo Max® Kinetic Microplate Reader over a 2 minute period in which less than 5% of the added substrate was utilized. […]
# Ki* was determined by fitting Vs/Vo verses [I] using Equation 1 by non-linear regression analysis. […]
# [4] = biological target: T1, a-thrombin; assay: Inhibition of fluid-phase thrombin (FPA generation in citrated plasma); format: biochemical; set-up: Purified human a-thrombin; purchased Enzyme Research Laboratories, Inc; conditions: 60 min, 37° C., compound 8 18.75 nM, Hirulog-1 500 nM, rHIR 4 nM, FIG. 5A
# Procedure: I. et.al. J. Clin. Invest., 86: 385-391 (1990). Human a-thrombin (2 U/ml) was incubated with citrated plasma for 60 minutes at 37° C. in the absence or presence of varying concentrations of each of the inhibitors. At timed intervals, 100 μl aliquots were removed and the reaction was terminated by the addition of […] (5 μM, final concentration). Unreacted fibrinogen was then precipitated with ethanol, and the ethanol supernatants were assayed for fibrinopeptide A (FPA). Thrombin addition to plasma results in rapid FPA generation which reaches a plateau in minutes as the thrombin is complexed and inactivated by fluid-phase antiproteases.(e.g. antithrombin III).
# [5] = tested on: Male Harlan Sprague Dawley rats; assay: Rat model of FeCl3-induced platelet-dependent arterial thrombosis; format: in vivo
# Source text: Kurz, K. D., Main, B. W., and Sandusky, G. E., Thromb. Res., 60: 269-280. (1990). In this model a platelet-rich, occlusive thrombus is formed in a segment of the rat carotid artery treated with a fresh solution of FeCl3 absorbed to a piece of filter paper. The FeCl3 is thought to diffuse into the treated segment of artery and causes de-endothelialization resulting in thrombus formation. The effect of a test compound on the incidence of occlusive thrombus formation following the application of the FeCl3 is monitored by ultrasonic flowtometry and is used as the primary end point. The use of flowtometry is a modification of the original procedure in which thermal detection of clot formation was employed. Kurz, K. D., Main, B. W., and Sandusky, G. E., Thromb. Res., 60: 269-280 (1990).
# Male Harlan Sprague Dawley rats (420-450 g) were acclimated at least 72 hours prior to use and fasted for 12 hours prior to surgery with free access to water. The animals were prepared, anesthetized with Nembutal with catheters for blood pressure monitoring, drug and anesthesia delivery being implanted as described above. The left carotid artery was exposed and isolated by making a midline cervical incision followed by blunt dissection and spreading techniques to separate a 2 cm segment of the vessel from the carotid sheath. A silk suture is inserted under the proximal and distal ends of the isolated vessel to provide clearance for the placement of a ultrasonic flow probe (Transonic) around the proximal end of the vessel. The probe is then secured with a stationary arm.
# The test compounds were administered as described above after placement of the flow probe and stabilization of the preparation for a period of 60 minutes prior to the thrombogenic stimulus. At t=0, a 3 mm diameter piece of filter paper (Whatman #3) soaked with […] of a 35% solution of fresh FeCl3 (in water) was applied the segment of isolated carotid artery distal to the flow probe. Blood pressure, blood flow, heart rate, and respiration were monitored for 60 minutes.
# The incidence of occlusion (defined as the attainment of zero blood flow) was recorded as the primary end point. Following the 60 minute observation period the flow probe was removed and the area cleared of all excess fluid. The distal and proximal sutures were tied off and arterial clamps placed on the far proximal and distal ends of the segment. The isolated segment was cut out, blotted dry on filter paper and weighed. The segment was re-weighed following removal of the clot and the difference recorded as total % clot (see above). Weights were recorded on only those segments which had detectable thrombus. Following the procedure the animals were euthanized as described above.
# [6] = Group 4: 0.1 mg/kg i.v. bolus + 40 mg/kg/min i.v. infusion
substance,measurement,setting,value
(D-Phe)-Pro-Arg-Pro-(Gly)4 -Asn-Gly-Asp-Phe-Glu-Glu-Ile-Pro-Glu-Glu-Tyr-Leu-OH [Hirulog-1],Antihemostatic Effects APTT,[1]; control 32 sec,> 300 s
same,Antihemostatic Effects Bleeding Time,[1]; control 4 min,21 min
same,Antithrombotic Effects ED50,[2],125 nmol/kg/min
same,Ki,[3],0.437 nM
same,inhibition of fluid-phase a-thrombin-mediated FPA generation,[4],only transient inhibition
same,Incidence of Occlusion,[5]; Group 1: 0.1 mg/kg i.v. bolus + 5 mg/kg/min i.v. infusion,3/3
same,% Clot,"[5]; Group 1: 0.1 mg/kg i.v. bolus + 5 mg/kg/min i.v. infusion, mean ± S.E.M., segments with detectable thrombus",70.1 ± 5.5%
same,Incidence of Occlusion,[5]; Group 2: 0.1 mg/kg i.v. bolus + 10 mg/kg/min i.v. infusion,5/6
same,% Clot,"[5]; Group 2: 0.1 mg/kg i.v. bolus + 10 mg/kg/min i.v. infusion, mean ± S.E.M., segments with detectable thrombus",59.42 ± 4.34%
same,Incidence of Occlusion,[5]; Group 3: 0.1 mg/kg i.v. bolus + 20 mg/kg/min i.v. infusion,5/6
same,% Clot,"[5]; Group 3: 0.1 mg/kg i.v. bolus + 20 mg/kg/min i.v. infusion, mean ± S.E.M., segments with detectable thrombus",45.3 ± 11.63%
same,% Clot,[5]; [6],0%
same,Incidence of Occlusion,[5]; [6],0/6

# Source: US5670479A, “α-ketoamide derivatives as inhibitors of thrombosis” (Corvas International, Inc., priority 1994, dated 1997)
